Reference: paper PMC8919507, “Dual Reversible Coumarin Inhibitors Mutually Bound to Monoamine Oxidase B and Acetylcholinesterase Crystal Structures” (ACS Medicinal Chemistry Letters, 2022)

Target: T1, mouse AChE (Mus musculus, UniProt P21836)
T1 sequence (P21836 32-614): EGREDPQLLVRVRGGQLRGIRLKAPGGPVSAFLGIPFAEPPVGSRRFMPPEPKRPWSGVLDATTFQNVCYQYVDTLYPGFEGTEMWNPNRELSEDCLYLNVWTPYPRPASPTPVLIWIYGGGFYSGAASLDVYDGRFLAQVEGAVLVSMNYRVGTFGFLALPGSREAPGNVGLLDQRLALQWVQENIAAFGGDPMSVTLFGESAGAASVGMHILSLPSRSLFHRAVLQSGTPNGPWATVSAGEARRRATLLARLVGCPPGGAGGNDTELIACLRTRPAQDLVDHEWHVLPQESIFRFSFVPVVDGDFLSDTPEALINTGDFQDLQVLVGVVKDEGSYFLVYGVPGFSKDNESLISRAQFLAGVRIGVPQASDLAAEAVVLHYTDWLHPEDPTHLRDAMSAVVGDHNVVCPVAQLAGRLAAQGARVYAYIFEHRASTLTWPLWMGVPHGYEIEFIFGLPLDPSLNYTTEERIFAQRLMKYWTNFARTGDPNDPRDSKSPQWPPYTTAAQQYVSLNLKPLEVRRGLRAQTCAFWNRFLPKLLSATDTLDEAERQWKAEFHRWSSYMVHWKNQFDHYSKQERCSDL
Assay: AChE inhibition, spectrophotometric Ellman's method on purified recombinant enzyme
Settings: 1 mM acetylthiocholine iodide, pH 7.4
Protocol: Mouse AChE was expressed in HEK293 F cells and purified as previously reported.3 The activity
of AChE was measured using the Ellman assay adaped to a 96-well plate format.4 The
acetylthiocholine iodide was 1 mM. The measurements were performed in 0.1 M phosphate
Determination of IC50 values for the compounds
inhibition of AChE was performed as previously reported.6 At least 5 replicate IC50 determinations at 8
inhibitor concentrations were performed for each compound. The obtained dose-response curve was
fitted using the response variable slope versus log(inhibitor concentration) equation (four parameters) in
GraphPad Prism software 5.0.

Work on `Cc1c(C)c2ccc(OCC3CCCN(Cc4ccccc4)C3)cc2oc1=O` (single isomer, unassigned; (-)) [(−)-2, 7-[(1-benzylpiperidin-3-yl)methoxy]-3,4-dimethyl-2H-chromen-2-one] yielded an IC50 of 700 ± 50 nM.

`Cc1c(C)c2ccc(OCC3CCCN(Cc4ccccc4)C3)cc2oc1=O` (single isomer, unassigned; (+)) [(+)-2, 7-[(1-benzylpiperidin-3-yl)methoxy]-3,4-dimethyl-2H-chromen-2-one] was tested, and the IC50 was 1500 ± 100 nM.
